Assay [1] has as its target T1, PARP15 (Homo sapiens, UniProt Q460N3).
T1 construct: The catalytic domains of PARP15 (residue 481-678); His6 (N); Factor Xa cleavage site (IEGR) (N); made in house; host or cells: E. coli BL21 (DE3)
T1 sequence (Q460N3 with tags, fused parts or gaps): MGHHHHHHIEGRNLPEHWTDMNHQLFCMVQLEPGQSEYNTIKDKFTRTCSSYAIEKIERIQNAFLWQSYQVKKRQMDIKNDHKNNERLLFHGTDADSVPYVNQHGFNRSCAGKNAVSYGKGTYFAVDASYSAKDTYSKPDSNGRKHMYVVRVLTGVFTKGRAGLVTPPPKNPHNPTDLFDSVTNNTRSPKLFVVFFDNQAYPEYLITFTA
The experiment in a line: MLISA inhibition of PARP15-catalyzed automodification (Experiment No. 2). In kind it is biochemical. The note with it: at concentrations up to 100 μM.

In assay [2] the target is T2, PARP15 (Homo sapiens, UniProt Q460N3).
T2 sequence (Q460N3 1-678): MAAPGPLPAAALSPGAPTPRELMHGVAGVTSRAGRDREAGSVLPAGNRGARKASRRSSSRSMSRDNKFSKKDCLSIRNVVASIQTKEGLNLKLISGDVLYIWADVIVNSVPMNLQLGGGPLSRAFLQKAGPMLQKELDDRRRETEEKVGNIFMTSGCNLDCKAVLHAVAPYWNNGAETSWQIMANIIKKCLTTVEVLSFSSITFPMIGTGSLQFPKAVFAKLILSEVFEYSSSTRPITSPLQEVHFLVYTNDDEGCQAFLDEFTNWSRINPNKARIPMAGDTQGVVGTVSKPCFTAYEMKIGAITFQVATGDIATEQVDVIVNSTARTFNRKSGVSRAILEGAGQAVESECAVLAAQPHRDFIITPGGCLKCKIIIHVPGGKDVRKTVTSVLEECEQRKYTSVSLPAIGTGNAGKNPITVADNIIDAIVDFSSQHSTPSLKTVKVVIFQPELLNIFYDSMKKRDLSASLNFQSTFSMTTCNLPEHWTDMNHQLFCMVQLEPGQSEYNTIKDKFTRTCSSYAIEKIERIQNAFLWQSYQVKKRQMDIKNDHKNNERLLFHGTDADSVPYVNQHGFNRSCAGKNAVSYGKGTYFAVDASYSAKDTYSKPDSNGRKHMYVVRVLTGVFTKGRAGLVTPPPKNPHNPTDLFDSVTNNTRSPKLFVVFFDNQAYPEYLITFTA
The note with it: Karlberg et al., J. Biol. Chem. 2015; read-out: Km value of PARP15 reported previously; cited from earlier work.

The target of assay [3] is T1, PARP15. The experiment in a line: M2-based ELISA plate inhibition assay, PARP15 (Experiment No. 1). The note with it: 500 nM PARP15, 500 μM NAD+, inhibitors at 1, 10 and 100 μM, 2 h. In kind it is biochemical. The protocol:
The general scheme of ELISA assay is illustrated in FIG. 1. PARP automodification reactions (100 μL) were conducted in 96-wells plate together with the coating process for 2 hours at room temperature. After five times of 200 μL PBST washes (0.1% v/v Tween 20 in PBS buffer, pH 7.4) per well the plates were blocked with 3% BSA dissolved in PBS buffer for 2 hours under room temperature followed by five washes of 200 μL PBST per well. The plates were incubated for 1 hour upon addition of 100 μL of 0.1 μM Macrodomain 2 and then washed five times with 200 μL PBST per well. […] The fluorescence signal was developed by addition of 75 μL QuantaBlu Fluorogenic Peroxidase Substrate and recorded by Synergy H1 Multi-Mode Reader (BioTek, VT). Kinetic parameters were calculated using nonlinear regression Michaelis-Menten model using GraphPad Prism (GraphPad Software). […]
96-well ELISA plates were coated with reactions in triplicates consisting of PARP enzymes (PARP14: 1 μM; PARP15: 500 nM) with various inhibitors at different concentrations (1, 10 and 100 μM) in addition to 500 μM of NAD^+ in Reaction Buffer (50 mM Tris-HCl, pH 7.4, 2 mM dTT). […] To control for any potential inhibition activity related to DMSO, wells containing 1% DMSO were analyzed in triplicates alongside with no inhibitor control wells and 100 μM control inhibitor wells.

One may read the Km as the substrate concentration at which the rate is half of its maximum.

Turning to `Nc1ncnc2[nH]cnc12` [Adenine], the “inhibition effects on PARP15 activity” value in assay [1] is given as “no significant inhibition effects”.

`CN(C)c1ccc(O)c2c1C[C@H]1C[C@H]3[C@H](N(C)C)C(O)=C(C(N)=O)C(=O)[C@@]3(O)C(O)=C1C2=O` [Minocin]: in assay [1], the “inhibition effects on PARP15 activity” value was “no significant inhibition effects”.

Turning to `NC(=O)c1ccc[n+]([C@@H]2O[C@H](COP(=O)([O-])OP(=O)(O)OC[C@H]3O[C@@H](n4cnc5c(N)ncnc54)[C@H](O)[C@@H]3O)[C@@H](O)[C@H]2O)c1` [NAD^+, Nicotinamide adenine dinucleotide], the Km in assay [2] was 5.8 ± 1.9 µM.

With `O=C(c1cc(Cc2n[nH]c(=O)c3ccccc23)ccc1F)N1CCN(C(=O)C2CC2)CC1` [Olaparib], the “inhibition of PARP15 (fluorescence intensity)” value in assay [3] is recorded as “better inhibitory effect at 100 μM but it is less potent comparing to other inhibitor”. Consider `O=c1[nH]c(-c2ccc(C(F)(F)F)cc2)nc2c1CSCC2` [XAV939], for which, in assay [1], the “inhibition effects on PARP15 activity” value is recorded as “no significant inhibition effects”.

(Values after patent US20190212340A1, “AN ELISA-LIKE ASSAY FOR QUANTIFYING ENZYMATIC ACTIVITIES OF MONO-ADP-RIBOSYLTRANSFERASES” (University of Southern California, priority 2016, published 2019).)
